According to patent US20190105367A1, “ANTIMICROBIAL 4-OXOQUINOLIZINES” (Emergent Product Development Gaithersburg Inc., priority 2011, published 2019):

Assays:
[1] = test system: S. aureus ATCC 43300 (MRSA, FQ-S); assay: MIC, selected panel of bacterial strains (Example 5); assay type: cell-based, Staphylococcus aureus; conditions: Staphylococcus aureus, read-out: MICs against Gram positive bacteria S. aureus ATCC 43300 (MRSA, FQ-S)
[2] = test system: GN52 Acinetobacter baumannii levofloxacin resistant clinical isolate; assay: Chequerboard synergy with polymyxin B, FICI (Example 6); assay type: cell-based
Source text: (§1) A chequerboard technique was used to identify possible synergistic or antagonistic interactions between the 4-oxoquinolizines compounds, levofloxacin and polymyxin B. Levofloxacin was included as a control. […] Final dilutions were made in Mueller-Hinton broth, the specific test medium used for MIC determinations according to CLSI guidelines (CLSI. Methods for Dilution Antimicrobial Susceptibility Tests for Bacteria That Grow Aerobically; Approved Standard-Eighth Edition (2009). CLSI Document M07-A8. CLSI, Wayne, Pa. 19087-1898, USA.). The test medium used was a cation-adjusted Mueller-Hinton Broth II (Becton Dickinson UK Ltd., Oxford Science Park, Oxford, UK, OX4 4DQ).
(§2) The compounds 2, 33 and 35, as well as levofloxacin were tested in combination with polymyxin B on the following isolates: GN31 Acinetobacter baumannii—antibiotic susceptible clinical isolate, GN52 Acinetobacter baumannii—levofloxacin resistant clinical isolate, GN56 Acinetobacter baumannii—levofloxacin resistant clinical isolate, GN48 Klebsiella pneumoniae—NCTC 13443—NDM-1-metallo-β-lactamase and GN10 Pseudomonas aeruginosa—ATCC 27853—antibiotic susceptible reference isolate. All isolates are from the collection maintained at Quotient Bioresearch Ltd., Cambridge, UK.
(§3) The MIC values for the compounds and polymyxin B and levofloxacin were determined by broth microdilution following CLSI guidelines, and the MICs of agents in combination were determined as described by Pillai et. al (Pillai S K, Moellering R C Jr, Eliopoulis G M; Antimicrobial Combinations in Antibiotics in Laboratory Medicine 5th Edition (V. Lorian Ed) (2005) p 365-440). Initial MIC results were used to determine the microtiter plate patterns for the chequerboards. A suitable doubling dilution concentration range was selected such that the combination antibiotic range was at least two concentrations above and four concentrations below the MIC for each isolate. A fixed range of 0.008 to 8 mg/L was tested for polymyxin B except in the case of A. baumannii GN31 where a range of 0.004 to 4 mg/L was tested when in combination with the compounds 2, 33 and 35 as well as levofloxacin.
(§4) From the raw data, fractional inhibitory concentration indices (FICI) were determined for the compounds of the invention and levofloxacin together with polymyxin B for each isolate as follows:
(§5) FICX=concentration of the combination antibiotic in a particular row MIC of the combination drug alone
(§6) FICY=MIC of polymyxin B in combination[…]MIC of the polymyxin B alone
(§7) Additionally isobolograms were created to represent the same data visually. Here, the MIC of polymyxin B was plotted against every concentration of the combination antibiotic up to the MIC.

[3] = test system: GN31 Acinetobacter baumannii antibiotic susceptible isolate; assay: as above; assay type: cell-based
Source text: as §1, §2, §3, §4, §5, §6, §7

[4] = test system: GN48 Klebsiella pneumoniae NCTC 13443 NDM-1-β-lactamase producing isolate; assay: as above; assay type: cell-based
Source text: as §1, §2, §3, §4, §5, §6, §7

[5] = test system: GN56 Acinetobacter baumannii levofloxacin resistant clinical isolate; assay: as above; assay type: cell-based
Source text: as §1, §2, §3, §4, §5, §6, §7

[6] = in combination with polymyxin B
[7] = polymyxin B with the named antibiotic

## Cc1c(-c2ccc(N)nc2)c(F)cn2c(=O)c(C(=O)[O-])cc(C3CC3)c12.[K+] [Compound 60K salt, potassium 8-(6-aminopyridin-3-yl)-1-cyclopropyl-7-fluoro-9-methyl-4-oxo-4H-quinolizine-3-carboxylate]
[1]
  MIC: < 0.004 µg/mL

## Cc1c(-c2ccc3[nH]ncc3c2)ccn2c(=O)c(C(=O)O)cc(C3CC3)c12 [Compound 35, 8-(1H-indazol-5-yl)-1-cyclopropyl-9-methyl-4-oxo-quinolizine-3-carboxylic acid]
[2]
  Combination drug MIC alone: 2 µg/mL
  FICx: 0.25
  FICy: 0.24
[2]; combination with polymyxin B
  FICI: 0.49
  Synergy: Synergy (Synergy (FICI <0.5))
[2]; [6]
  Combination drug concentration in combination: 0.5 mg/L
[2]; [7]
  Polymyxin B MIC in combination: 0.12 µg/mL
[3]
  Combination drug MIC alone: 0.03 µg/mL
  FICx: 0.13
  FICy: 0.48
[3]; combination with polymyxin B
  FICI: 0.61
  Synergy: Partial synergy (partial synergy/addition (FICI 0.51 to 0.75))
[3]; [6]
  Combination drug concentration in combination: 0.004 mg/L
[3]; [7]
  Polymyxin B MIC in combination: 0.12 µg/mL
[4]
  FICx: 0.06
  FICy: 0.50
[4]; combination with polymyxin B
  FICI: 0.56
  Synergy: Partial synergy (partial synergy/addition (FICI 0.51 to 0.75))
[4]; combination with polymyxin B, listed as compound 35
  Synergy: partial synergy
[4]; [6]
  Combination drug concentration in combination: 1 mg/L
[4]; [7]
  Polymyxin B MIC in combination: 0.25 µg/mL
[5]
  Combination drug MIC alone: 8 µg/mL
  FICx: 0.06
  FICy: 0.50
[5]; combination with polymyxin B
  FICI: 0.56
  Synergy: Partial synergy (partial synergy/addition (FICI 0.51 to 0.75))
[5]; [6]
  Combination drug concentration in combination: 0.5 mg/L
[5]; [7]
  Polymyxin B MIC in combination: 0.25 µg/mL
